Reference: patent publication US6596712B2, “Treatment of carcinomas using squalamine in combination with other anti-cancer agents or modalities” (Genaera Corporation, priority 1996, dated 2003)

Tests used:
[1] = system: H460 human lung adenocarcinoma line; assay: Nude mouse xenograft model of lung cancer with cisplatin, H460; format: in vivo; details: started on day 4 or 5, daily i.p.
Excerpt: (§1) Studies in a nude mouse xenograft model of lung cancer have been carried out using several human lung cancer lines which differ in their growth rate. […] The experimental lung cancer model design involves subcutaneous injection of 5×10^6 tumor cells followed by a single injection of the chemotherapeutic drug on day 3 or 4. […] Groups of mice receiving squalamine alone started receiving the aminosterol on the same day as aminosterol treatment in the combination chemotherapy groups. Tumor volumes were then determined at termination of the experiment and compared.

[2] = system: Calu-6 human lung adenocarcinoma line; assay: Nude mouse xenograft model of lung cancer with cisplatin, Calu-6; format: in vivo; details: started on day 4 or 5, daily i.p.
Excerpt: as §1

[3] = system: 9L and C6 rat glioma cells, human H80 glioma cells, VX2 rabbit carcinoma cells; assay: Proliferation of tumor cell lines; format: cell-based
Description: In conducting this in vitro analysis, the following cell lines were tested: (a) bovine retinal endothelial cells; (b) 9L and C6 rat glioma cells; (c) human H80 glioma cells; and (d) VX2 rabbit carcinoma cells (the same type as the tumors implanted in the rabbit corneal micropocket assay test described above). The endothelial mitogen which was used in this analysis was VEGF at a concentration of 20 ng/ml.
The cells were allowed to attach overnight to tissue culture plates containing an optimized growth media. Following attachment, the cells were exposed to solvent only or 5 to increasing concentrations of squalamine (0, 10, 20, 30, 60, and 90 μg squalamine/ml). Cell growth was counted daily for three days using a Coulter Counter. A total of 10,000 cells per well were plated and each experimental concentration was tested in quadruplicate. The results were then averaged. The bovine retinal endothelial cells were grown and treated in an identical manner to the other cell lines, except that the growth of these cells was measured after the addition of 20 ng/ml of human recombinant VEGF to the cells prior to the squalamine treatment.
Percentage endothelial cell growth inhibition (%I) was determined by the following equation: [formula]

CC(C)[C@@H](CC[C@@H](C)[C@H]1CC[C@H]2[C@@H]3[C@H](O)C[C@H]4C[C@@H](NCCCNCCCCN)CC[C@]4(C)[C@H]3CC[C@]12C)OS(=O)(=O)O [Squalamine, squalamine]
tumor growth, monotherapy [1]: minimal effects on tumor growth | tumor growth, monotherapy [2]: minimal effects on tumor growth | growth of H80, C6 and VX2 cell lines as percentage of control ([3]; 30 μg/ml, 1, 2 and 3 days (FIG. 9)): not dramatically affected | cell proliferation by all tumor lines ([3]; 24 and 48 hours, up to 30 μg/ml): statistically unaffected
